In ChEMBL document CHEMBL5034044, “Novel Compounds for Targeted Degradation of BRD9 and Their Use for Treating Cancer” (ACS Med Chem Lett, 2022):

The compounds below were run against T1, Bromodomain-containing protein 9 (Homo sapiens, UniProt Q9H8M2) (assay: Induction of degradation of BRD9 (unknown origin) assessed as protein degradation measured after 2 hrs by HiBit Lytic assay).
T1 sequence (Q9H8M2 whole entry): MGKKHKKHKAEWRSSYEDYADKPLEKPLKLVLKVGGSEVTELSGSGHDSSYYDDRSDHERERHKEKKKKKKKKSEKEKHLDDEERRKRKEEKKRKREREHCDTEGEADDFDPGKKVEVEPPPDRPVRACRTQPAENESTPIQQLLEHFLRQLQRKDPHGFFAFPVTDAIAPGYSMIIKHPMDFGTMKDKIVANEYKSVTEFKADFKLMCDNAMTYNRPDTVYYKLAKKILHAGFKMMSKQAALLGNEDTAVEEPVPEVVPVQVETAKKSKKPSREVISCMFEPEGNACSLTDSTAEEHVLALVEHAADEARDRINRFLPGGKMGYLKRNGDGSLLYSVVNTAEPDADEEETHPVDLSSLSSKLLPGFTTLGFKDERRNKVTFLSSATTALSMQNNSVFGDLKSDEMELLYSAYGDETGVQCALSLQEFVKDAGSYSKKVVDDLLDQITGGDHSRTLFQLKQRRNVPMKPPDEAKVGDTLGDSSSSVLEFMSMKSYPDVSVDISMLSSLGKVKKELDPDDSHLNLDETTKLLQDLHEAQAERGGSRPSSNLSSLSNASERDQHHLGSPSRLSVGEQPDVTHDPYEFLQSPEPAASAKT

DC50, < 100 nM:
COc1cc(-c2cn(C)c(=O)c(C)c2C)cc(Cl)c1CN1CCC(N2CCN(c3ccc(NC4CCC(=O)NC4=O)cc3F)CC2)C(F)(F)C1 (stereo unspecified)
COc1cc(-c2cn(C)c(=O)c(C)c2C)cc(OC)c1CN1CCN(C(=O)CC2CCN(c3ccc(NC4CCC(=O)NC4=O)cc3C(F)(F)F)CC2)CC12CC2 (stereo unspecified)
COc1cc(-c2cn(C)c(=O)c3[nH]ncc23)cc(OC)c1CN1CCC2(CC1)CN(C(=O)CN1CCC(c3ccc(NC4CCC(=O)NC4=O)cc3)CC1)C2 (stereo unspecified)
CC(c1ccc(-c2cn(C)c(=O)c3cc(F)ccc23)cc1OC(F)(F)F)N1CCC(C2CCN(c3ccc(NC4CCC(=O)NC4=O)cc3F)CC2)CC1 (stereo unspecified)
COc1cc(-c2cn(C)c(=O)c3[nH]ncc23)cc(OC)c1CN1CCc2c(CN3CCC(c4ccc(NC5CCC(=O)NC5=O)cc4)C(F)(F)C3)csc2C1 (stereo unspecified)
COc1cc(-c2cn(C)c(=O)c3cnccc23)c(Cl)cc1CN1CCC(N2CCN(c3ccc(NC4CCC(=O)NC4=O)cc3F)CC2)C(F)(F)C1 (stereo unspecified)
